Results reported in PMC6412381, “Covalently Linking Oligomerization-Impaired GlpF Protomers Does Not Completely Re-establish Wild-Type Channel Activity” (International Journal of Molecular Sciences, 2019).

Key:
[1] = molecular target: T1, WT4 (genetically fused GlpF tetramer) (Escherichia coli, UniProt P0AER0); test: stopped-flow light scattering of E. coli SK46 cells, re-swelling by ribitol influx; type: cell-based; conditions: LB medium, mixed with equal volume of 600 mM ribitol, 25 °C, 500 µM IPTG induction; transport through channel
T1 construct: four full-length GlpF copies fused in one polypeptide, N-terminal extension MGSGLE, Val-Glu linkers between monomers, calculated 120 kDa; expressed in E. coli SK46 lacking GlpF and AqpZ
T1 sequence (P0AER0 1-281): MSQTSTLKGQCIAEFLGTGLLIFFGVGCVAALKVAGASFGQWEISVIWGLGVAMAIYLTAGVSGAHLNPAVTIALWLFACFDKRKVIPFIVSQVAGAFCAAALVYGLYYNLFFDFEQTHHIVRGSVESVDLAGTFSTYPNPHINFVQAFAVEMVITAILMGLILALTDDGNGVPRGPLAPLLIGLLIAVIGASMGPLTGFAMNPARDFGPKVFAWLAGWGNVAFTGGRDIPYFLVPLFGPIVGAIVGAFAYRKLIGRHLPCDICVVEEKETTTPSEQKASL

[2] = molecular target: T2, GlpF WT (non-fused) (Escherichia coli, UniProt P0AER0); test: as above; type: cell-based; conditions: LB medium, mixed with equal volume of 600 mM ribitol, 25 °C, 500 µM IPTG induction; transport through channel
T2 construct: expressed from pMalp2-based plasmid in E. coli SK46 lacking GlpF and AqpZ
T2 sequence (P0AER0 1-281): T1 sequence (P0AER0 1-281)

In the case of `OC[C@@H](O)[C@@H](O)[C@@H](O)CO` [ribitol], the “k (flux rate constant)” value [1] is reported as “yet the WT4 protein was still highly active” and the “k (flux rate constant)” value [2] is reported as “the ribitol conductance of the fused GlpF tetramer was slightly decreased compared to the non-fused”.
